Values joined by “and” are separate entries in the source; they are usually repeats but may differ in a detail not shown here. Equal entries are not always repeated. Where two headings read alike, the source gives them in different places.
How the values were obtained:
[1] = DVS
Protocol: DVS isotherms were collected on an SMS (Surface Measurement Systems) DVS Intrinsic. Relative humidity at 25°C was calibrated using the deliquescence points of LiCl, Mg(NO3)2, and KCl. Table 9 DVS testing parameters

[2] = for Carr index: (tapped density - bulk density) / tapped density; for Average angle of repose (°) / Average bulk density / Average tapped density: mean of three tests
Protocol: A method for testing the density and the tapped density included: (1) a certain mass of to-be-assessed sample was placed into a 5 mL measuring cylinder, and the volume at this moment was recorded. The bulk density was calculated by dividing the mass of the sample by the volume at this moment. (2) The measuring cylinder was slightly tapped 200 times, the final volume was recorded, and the tapped density was calculated by dividing the mass of the sample by the final volume. (3) Three parallel tests were conducted. A method for testing the angle of repose included: (1) a funnel was fixed vertically to a bottom surface, and the material was slowly placed into the funnel. (2) A well-proportioned cone of the material was formed on the bottom surface. The height and bottom surface diameter of the cone were measured. (3) Three parallel tests were conducted.
Angle of repose α = […], where h is the cone height, and D is the cone diameter.

[3] = Pharmacokinetics of free crystal form A in Beagle dogs (i.v. and intragastric); type: in vivo; conditions: dog
Protocol: Preparations were administered to the group C on the second day to the seventh day were prepared in the same way as that on the first day.
All the animals in this experiment were randomly divided into 4 groups (3 dogs/sex/group). The animals in the group A, the group B, and the group D were fasted before administration, and the animals in the group C were fasted before the first administration and the last administration. All the animals were fasted for at least 12 h before administration, and food was resumed 4 h after administration. All the animals had free access to water and food during the experiment. Table 25 Animal groups and administration methods
The animals in the group A were intravenously injected with the drug at 2 mg/kg, and blood samples were collected from the jugular vein before and 0.033 h, 0.083 h, 0.25 h, 0.5 h, 1 h, 2 h, 4 h, 8 h, 12 h, and 24 h after administration. The animals in the group B and the group D received single intragastric administration of the drugs at 2 mg/kg and 20 mg/kg, respectively, and blood samples were collected from the jugular vein before and 0.083 h, 0.25 h, 0.5 h, 1 h, 2 h, 4 h, 8 h, 12 h, and 24 h after administration. […] Blood samples were collected from the jugular vein before the first administration and the seventh administration and 0.083 h, 0.25 h, 0.5 h, 1 h, 2 h, 4 h, 8 h, 12 h, and 24 h after administration. Blood samples were collected from the jugular vein before administration and 0.5 h after administration from the second administration to the sixth administration. The sample collected before the second administration was the sample collected 24 h after the first administration.
The blood samples from the animals were collected through the jugular vein, with a blood sample volume of 0.5 mL/time. All collected whole blood samples were placed in centrifuge tubes containing ethylene diamine tetraacetic acid potassium salt (EDTA-K2), and the centrifuge tubes were turned upside down to allow the anticoagulant and blood to be fully mixed. All the samples were placed on wet ice before centrifugation and centrifuged at 1524 g for 10 min to separate plasma. The plasma samples were transferred to new centrifuge tubes and stored at -90°C to […] until analysis.
The drug concentration in the plasma of each Beagle dog was determined by liquid chromatography with tandem mass spectrometry (LC-MS/MS). The obtained plasma concentration data was analyzed by using the pharmacokinetic processing software WinNonlin 8.0 with a non-compartmental model to calculate relevant pharmacokinetic parameters.

[4] = type: physicochemical; conditions: for S: solubility: 1440 min; for FC: crystal transfer: XRPD of solid; for pH: pH of filtrate
[5] = Urine and fecal excretion after single intragastric administration; conditions: dog, po, 6 mg/kg
Protocol: The preparations were freshly prepared on the day of administration, and sampled for determination of preparation concentration.
Six Beagle dogs (half male and half female) were fasted overnight in metabolic cages the day before the experiment. Before administration, urine and feces of each animal were collected as baseline (0 h) samples. On the day of administration, Beagle dogs received single intragastric administration of the drug at 6 mg/kg. Four hours after administration, the animals resumed feeding and had free access to water during the experiment.
After urine collection is completed, the volume was measured and recorded. Part of the collected urine was taken, methanol was added to dilute the urine in a urine-to-methanol volume ratio of 4: 1 (v/v). After vortex mixing, the mixture was divided into 2 portions. After fecal samples at different time periods were collected, the food residues on the surface were removed and the feces were weighed. […] After the last sampling of the urine and feces excretion experimental group was completed, the metabolic cages were rinsed with 2000 mL of water: ethanol (1: 1, v: v) and the rinse solution of each cage was collected. After the rinse solution was thoroughly shaken, 1 mL was immediately taken, placed into a 1.5 mL EP tube, and stored in a -90°C to 60°C refrigerator together with the urine and feces homogenate until sample analysis.
The drug concentration in the excretion samples of the animal in each group at different time periods was detected by LC-MS/MS, and an excretion rate and a cumulative excretion rate in each time period were calculated.

[6] = type: physicochemical; conditions: 37°C; for S: solubility: calculated as free form; for FC: crystal transfer: XRPD of solid; for pH: pH of filtrate
[7] = single values of three parallel tests

For CC[S@@](=N)(=O)C[C@H]1CC[C@H](N(C)c2ncnc3[nH]ccc23)CC1 [Free crystal form A], the “Hygroscopic weight gain (wt%) at 25°C/80% RH” value [1] was 0.39 wt%, the “Hygroscopic weight gain (wt%) at 25°C/80% RH” value ([1]; listed as free crystal form A) was 0.39 wt% and the Carr index [2] was 51%. The Carr index ([2]; listed as free crystal form A) was 51%, the “Average angle of repose (°)” value [2] was 47.1 ° and the “Average bulk density” value [2] was 0.11 g/mL. For the same molecule, the “Average tapped density” value [2] was 0.23 g/mL, the “Average angle of repose (°)” value ([2]; listed as free crystal form A) was 47.1 ° and the “Average bulk density” value ([2]; listed as free crystal form A) was 0.11 g/mL. The “Average tapped density” value ([2]; listed as free crystal form A) was 0.23 g/mL, the “Angle of repose (°)” value [2, 7] was 49.0 ° and 47.3 ° and 45.0 ° and the “Bulk density” value [2, 7] was 0.11 g/mL. The “Tapped density” value ([2]; tapped 200 times, single values of three parallel tests) was 0.23 g/mL and 0.22 g/mL, the “AUC0-t of the unit dose” value ([3]; in vivo) was 4380 ng·kg·h/mL/mg and 4990 ng·kg·h/mL/mg and 5030 ng·kg·h/mL/mg and the clinical observation ([3]; in vivo) was “no obvious abnormalities were found”. For the same molecule, the “male-to-female ratio of AUC0-t” value ([3]; in vivo) was 1.10 and 0.716 and 0.877, the “male-to-female ratio of Cmax” value ([3]; in vivo) was 1.36 and 0.810 and 0.894 and the “ratio of AUC0-t of the seventh administration and the first administration” value ([3]; in vivo) was 0.887. For the same molecule, the “ratio of Cmax of the seventh administration and the first administration” value ([3]; in vivo) was 0.964, the “unit dose AUC0-t ratio of 20 mg/kg and 2 mg/kg” value ([3]; in vivo) was 1.15 and the “unit dose Cmax” value ([3]; in vivo) was 675 kg·ng/mL/mg and 785 kg·ng/mL/mg and 665 kg·ng/mL/mg. For the same molecule, the “unit dose Cmax ratio of 20 mg/kg and 2 mg/kg” value ([3]; in vivo) was 0.985, the “steady-state volume of distribution (Vdss) relative to total body fluid volume” value ([3]; in vivo, iv, 2 mg/kg) was 1.57 times and the “total clearance (CL) relative to liver blood flow” value ([3]; in vivo, iv, 2 mg/kg) was 0.110 times. The Tmax ([3]; plasma, po, read-out: average time to peak drug concentration) was 0.792 to 1.33 h, the “S: solubility” value ([4]; Buffer (pH=4.5), room temperature, 24 h, calculated as free form) was over 9100 µg/mL and the “FC: crystal transfer” value ([4]; Buffer (pH=2.0), 24 h) was “No”. The “FC: crystal transfer” value ([4]; Buffer (pH=7.4), 24 h) was “No”, the “S: solubility” value ([4]; buffer, pH 2, 1440 min) was 6200 µg/mL and the “S: solubility” value ([4]; buffer, pH 4.5, 1440 min) was over 9100 µg/mL. The pH ([4]; Buffer (pH=2.0), room temperature, 24 h) was 5.6, the pH ([4]; Buffer (pH=4.5), room temperature, 24 h) was 5.0 and the pH ([4]; Buffer (pH=7.4), room temperature, 24 h) was 7.4. The dose excreted at 120 h ([5]; cage rinse solution) was 4.87 ± 3.09%, the dose excreted at 120 h ([5]; feces) was 3.48 ± 0.663% and the dose excreted at 120 h ([5]; urine and feces) was 47.3 ± 9.62%. For the same molecule, the dose excreted at 120 h ([5]; urine, feces, cage rinse) was 52.2%, the dose excreted at 120 h ([5]; urine) was 43.8 ± 9.97% and the “S: solubility” value ([6]; FaSSIF, 1 h, 60 min) was 2200 µg/mL. For the same molecule, the “S: solubility” value ([6]; FaSSIF, 2 h, 120 min) was 2200 µg/mL, the “S: solubility” value ([6]; FaSSIF, 4 h, 240 min) was 2300 µg/mL and the “S: solubility” value ([6]; FaSSIF, 24 h, 1440 min) was 2400 µg/mL. For the same molecule, the “S: solubility” value ([6]; H2O, 1 h, 60 min) was 2100 µg/mL, the “S: solubility” value ([6]; H2O, 2 h, 120 min) was 2100 µg/mL and the “S: solubility” value ([6]; H2O, 4 h, 240 min) was 2200 µg/mL. The “S: solubility” value ([6]; H2O, 24 h, 1440 min) was 2400 µg/mL, the “FC: crystal transfer” value ([6]; FaSSIF, 1 h) was “No” and the “FC: crystal transfer” value ([6]; FaSSIF, 2 h) was “No”. For the same molecule, the “FC: crystal transfer” value ([6]; FaSSIF, 4 h) was “No”, the “FC: crystal transfer” value ([6]; FaSSIF, 24 h) was “No” and the “FC: crystal transfer” value ([6]; FeSSIF, 1 h) was “No”. For the same molecule, the “FC: crystal transfer” value ([6]; FeSSIF, 2 h) was “No”, the “FC: crystal transfer” value ([6]; FeSSIF, 4 h) was “No” and the “FC: crystal transfer” value ([6]; FeSSIF, 24 h) was “No”. For the same molecule, the “FC: crystal transfer” value ([6]; H2O, 1 h) was “No”, the “FC: crystal transfer” value ([6]; H2O, 2 h) was “No” and the “FC: crystal transfer” value ([6]; H2O, 4 h) was “No”. For the same molecule, the “FC: crystal transfer” value ([6]; H2O, 24 h) was “No”, the “FC: crystal transfer” value ([6]; SGF, 1 h) was “No” and the “FC: crystal transfer” value ([6]; SGF, 2 h) was “No”. The “FC: crystal transfer” value ([6]; SGF, 4 h) was “No”, the “FC: crystal transfer” value ([6]; SGF, 24 h) was “No” and the pH ([6]; FaSSIF, 1 h) was 6.6. For the same molecule, the pH ([6]; FaSSIF, 2 h) was 6.6, the pH ([6]; FaSSIF, 4 h) was 6.6 and the pH ([6]; FaSSIF, 24 h) was 6.6. For the same molecule, the pH ([6]; FeSSIF, 1 h) was 5.3, the pH ([6]; FeSSIF, 2 h) was 5.3 and the pH ([6]; FeSSIF, 4 h) was 5.3. For the same molecule, the pH ([6]; FeSSIF, 24 h) was 5.3, the pH ([6]; H2O, 1 h) was 6.7 and the pH ([6]; H2O, 2 h) was 6.6. It also gave a pH ([6]; H2O, 4 h) of 6.7, a pH ([6]; H2O, 24 h) of 7.3 and a pH ([6]; SGF, 1 h) of 5.1. For the same molecule, the pH ([6]; SGF, 2 h) was 5.2, the pH ([6]; SGF, 4 h) was 5.2 and the pH ([6]; SGF, 24 h) was 5.2.

Reference: patent publication EP4660196A1, “CRYSTAL FORM OF COMPOUND, PREPARATION METHOD THEREFOR AND USE THEREOF” (Felicamed Biotechnology Co., Ltd., priority 2023, dated 2024)
